System: TFEB
Assay: TFEB nuclear translocation assay
Type: cell-based
Conditions: Homo sapiens; HeLa wt or HeLa TRPML1 KO cells, treated for 2 hrs; ratio of nuclear to ring-region TFEB intensity
Experimental: For the TFEB nuclear translocation assay, HeLa wt or HeLa TRPML1 KO cells were plated at 2700 cells/well into black-walled, 384-well Cell carrier Ultra tissue culture treated plates in complete media and incubated overnight. The next day, cells are treated for 2 hrs with compounds and incubated at 37° C. Cells were then fixed for 30 minutes at room temperature in 4% final PFA and washed five times with 90 μL PBS. PBS is aspirated from the wells and the cells are blocked with 7.5 μL blocking buffer (1.1 PBS/Odyssey block buffer containing 0.1% triton x-100 and 1% goat serum). After 30-60 minutes of block, 7.5 μL of primary anti-TFEB (rabbit) antibody is added for a final dilution of 1:200 antibody in 15 μL blocking buffer. Plates are incubated overnight at 4° C. The following day, plates are washed again into PBS, 90 μL with 5 washes, all PBS is aspirated from the wells and the cells are incubated for 1 hr in 1:1000 goat-anti rabbit Alexa 488 secondary antibody, also containing 10 μg/mL Hoechst 33342. After the 1 hr RT incubation, plates are washed a final time into PBS, sealed with foil and imaged with an automated epifluorescence microscopy (PerkinElmer Operetta CLS). Four different fields were imaged per well using ×20 magnification for DAPI and FITC filter sets. Images were quantified using PerkinElmer Harmony software, briefly: apply flatfield correction (basic/advanced) for input images. Use the Find Nuclei building block with channel set at Hoechst to find the nuclei. Use the Find cytoplasm building block with channel set to Alexa 488 to find the cytoplasm. Use select cell region with Channel set at Alexa 488 and region of interest as Nuclei and define outer border at 0 μm and inner at 45 μm to cover complete nuclei. Use select cell region with Channel set at Alexa 488 and region of interest as ring region and define outer border at −5 μm and inner at 0 μm to define a ring around the nucleus. Use the find calculate intensity parameter to calculate intensity of the nuclear region and the ring region. Define results as Number of nuclei and ratio of A/B where A is Intensity of Nuclei and B is intensity of the ring region.

EC50	SMILES
8.01 to 9.99 µM	O=S(=O)(Cc1ccccc1)N1CC2(CCCC2)c2ccccc21 [Compound I-1, 1′-phenylmethanesulfonyl-1′,2′-dihydrospiro[cyclopentane-1,3′-indole]]
≥ 10 µM	COC(CS(=O)(=O)N1CC2(CCCC2)c2ccccc21)c1ccc(F)cc1 (stereo not shown) [Compound I-7, 1′-[2-(4-fluorophenyl)-2-methoxyethanesulfonyl]-1′,2′-dihydrospiro[cyclopentane-1,3′-indole]]
2.01 to 8 µM	O=S(=O)(Cc1cccc(Cl)c1)N1CC2(CCCC2)c2ccccc21 [Compound I-46, 1′-[(3-chlorophenyl)methanesulfonyl]-1′,2′-dihydrospiro[cyclopentane-1,3′-indole]]
≥ 10 µM	CN1CCC2(C1)CN(S(=O)(=O)Cc1ccccc1)c1ccccc12 (stereo not shown) [Compound I-88, 1′-methyl-1-phenylmethanesulfonyl-1,2-dihydrospiro[indole-3,3′-pyrrolidine]]
≥ 10 µM	O=S(=O)(c1cnc(-c2ccccc2)o1)N1CC2(CCCC2)c2ccccc21 [Compound I-39, 1′-[(2-phenyl-1,3-oxazol-5-yl)sulfonyl]-1′,2′-dihydrospiro[cyclopentane-1,3′-indole]]
≥ 10 µM	O=S(=O)(CC(F)c1ccccc1)N1CC2(CCCC2)c2ccccc21 (stereo not shown) [Compound I-38, 1′-(2-fluoro-2-phenylethanesulfonyl)-1′,2′-dihydrospiro[cyclopentane-1,3′-indole]]
8.01 to 9.99 µM	CC(C)c1ccc(S(=O)(=O)N2CC3(CCCC3)c3ccccc32)cc1 [Compound I-4, 1′-[4-(propan-2-yl)benzenesulfonyl]-1′,2′-dihydrospiro[cyclopentane-1,3′-indole]]
≥ 10 µM	Cc1ccc(S(=O)(=O)N2CC3(CCCC3)c3ccccc32)cc1 [Compound I-13, 1′-(4-methylbenzenesulfonyl)-1′,2′-dihydrospiro[cyclopentane-1,3′-indole]]
2.01 to 8 µM	O=S(=O)(c1cccc(C2CC2(F)F)c1)N1CC2(CCCC2)c2ccccc21 (stereo not shown) [Compound I-49, 1′-[3-(2,2-difluorocyclopropyl)benzenesulfonyl]-1′,2′-dihydrospiro[cyclopentane-1,3′-indole]]
2.01 to 8 µM	Cc1ccc(CS(=O)(=O)N2CC3(CCCC3)c3ccccc32)c(F)c1 [Compound I-44, 1′-[(2-fluoro-4-methylphenyl)methanesulfonyl]-1′,2′-dihydrospiro[cyclopentane-1,3′-indole]]
≥ 10 µM	Cc1ccc(CS(=O)(=O)N2CC3(CCCC3)c3ccccc32)cc1 [Compound I-12, 1′-[(4-methylphenyl)methanesulfonyl]-1′,2′-dihydrospiro[cyclopentane-1,3′-indole]]
≥ 10 µM	CC(C)(CO)c1ccc(S(=O)(=O)N2CC3(CCCC3)c3ccccc32)cc1 [Compound I-54, 2-[4-({1′,2′-dihydrospiro[cyclopentane-1,3′-indol]-1′-yl}sulfonyl)phenyl]-2-methylpropan-1-ol]
8.01 to 9.99 µM	O=S(=O)(C1=Cc2ccccc2OC1)N1CC2(CCCC2)c2ccccc21 [Compound I-41, 1′-(2H-chromene-3-sulfonyl)-1′,2′-dihydrospiro[cyclopentane-1,3′-indole]]
2.01 to 8 µM	Cc1ccc(CS(=O)(=O)N2CC3(CCCC3)c3ccccc32)cc1C [Compound I-14, 1′-[(3,4-dimethylphenyl)methanesulfonyl]-1′,2′-dihydrospiro[cyclopentane-1,3′-indole]]

Further lines, the compound ahead of its results:

SMILES	EC50
CN(C)S(=O)(=O)c1ccc(S(=O)(=O)N2CC3(CCCC3)c3cnccc32)cc1 [Compound I-70, 4-({1′,2′-dihydrospiro[cyclopentane-1,3′-pyrrolo[3,2-c]pyridin]-1′-yl}sulfonyl)-N,N-dimethylbenzene-1-sulfonamide]	≥ 10 µM
CN(C)S(=O)(=O)c1ccc(S(=O)(=O)N2CC3(CCCCC3)n3nccc32)cc1 [Compound I-125, 4-({1′,2′-dihydrospiro[cyclohexane-1,3′-pyrazolo[1,5-a]imidazol]-1′-yl}sulfonyl)-N,N-dimethylbenzene-1-sulfonamide]	≥ 10 µM
CN(c1ccc(S(=O)(=O)N2CC3(CCCC3)c3ccccc32)cc1)S(C)(=O)=O [Compound I-52, N-[4-({1′,2′-dihydrospiro[cyclopentane-1,3′-indol]-1′-yl}sulfonyl)phenyl]-N-methylmethanesulfonamide]	≥ 10 µM
CC1(C)OCc2cc(S(=O)(=O)N3CC4(CCCC4)c4ccccc43)ccc21 [Compound I-66, 1′-((1,1-dimethyl-1,3-dihydroisobenzofuran-5-yl)sulfonyl)spiro[cyclopentane-1,3′-indoline]]	2.01 to 8 µM
CN1CCC2(C1)CN(S(=O)(=O)c1ccc(C(F)F)cc1)c1ccccc12 (stereo not shown) [Compound I-89]	≥ 10 µM
O=S(=O)(c1ccc(C2OCCO2)cc1F)N1CC2(CCCC2)c2ccccc21 [Compound I-22, 1′-[4-(1,3-dioxolan-2-yl)-2-fluorobenzenesulfonyl]-1′,2′-dihydrospiro[cyclopentane-1,3′-indole]]	≥ 10 µM
CC1(C)Cc2cc(S(=O)(=O)N3CC4(CCCC4)c4ccccc43)ccc2C1=O [Compound I-51, 5-({1′,2′-dihydrospiro[cyclopentane-1,3′-indol]-1′-yl}sulfonyl)-2,2-dimethyl-2,3-dihydro-1H-inden-1-one]	8.01 to 9.99 µM
CN(C)S(=O)(=O)c1ccc(S(=O)(=O)N2CC3(CCN(c4ccc(Cl)cc4F)CC3)c3ccccc32)cc1 [Compound I-106, 4-{[1′-(4-chloro-2-fluorophenyl)-1,2-dihydrospiro[indole-3,4′-piperidin]-1-yl]sulfonyl}-N,N-dimethylbenzene-1-sulfonamide]	≤ 2 µM
COC(=O)c1ccc(CS(=O)(=O)N2CC3(CCCC3)c3ccccc32)cc1 [Compound I-62, methyl 4-[({1′,2′-dihydrospiro[cyclopentane-1,3′-indol]-1′-yl}sulfonyl)methyl]benzoate]	≥ 10 µM
O=S(=O)(c1ccc2c(c1)COCC2)N1CC2(CCCC2)c2ccccc21 [Compound I-37]	2.01 to 8 µM
CN(C)S(=O)(=O)c1ccc(S(=O)(=O)N2CC3(CCOC3)c3ccccc32)cc1 (stereo not shown) [Compound I-76, 4-({1,2-dihydrospiro[indole-3,3′-oxolan]-1-yl}sulfonyl)-N,N-dimethylbenzene-1-sulfonamide]	2.01 to 8 µM
CN(C)S(=O)(=O)c1ccc(S(=O)(=O)N2CCC3(CCCCC3)c3ccccc32)cc1 [Compound I-128, 4-({2′,3′-dihydro-1′H-spiro[cyclohexane-1,4′-quinolin]-1′-yl}sulfonyl)-N,N-dimethylbenzene-1-sulfonamide]	≤ 2 µM
CN(C)S(=O)(=O)c1ccc(S(=O)(=O)N2CC3(CCCC3)c3ncccc32)cc1 [Compound I-78, N,N-dimethyl-4-(spiro[cyclopentane-1,3′-pyrrolo[3,2-b]pyridin]-1′(2′H)-ylsulfonyl)benzenesulfonamide]	2.01 to 8 µM
CC(C)(O)c1ccc(S(=O)(=O)N2CC3(CCCC3)c3ccccc32)cc1 [Compound I-50, 2-[4-({1′,2′-dihydrospiro[cyclopentane-1,3′-indol]-1′-yl}sulfonyl)phenyl]propan-2-ol]	≥ 10 µM
O=S(=O)(c1ccc2c(c1)OC1(CCC1)O2)N1CC2(CCCC2)c2ccccc21 [Compound I-64, 1′-({spiro[1,3-benzodioxole-2,1′-cyclobutan]-6-yl}sulfonyl)-1′,2′-dihydrospiro[cyclopentane-1,3′-indole]]	2.01 to 8 µM
CN1CCC2(CC1)CN(S(=O)(=O)c1ccc(S(=O)(=O)N(C)C)cc1)c1ccccc12 [Compound I-84, N,N-dimethyl-4-({1′-methyl-1,2-dihydrospiro[indole-3,4′-piperidin]-1-yl}sulfonyl)benzene-1-sulfonamide]	≥ 10 µM
CN(C)S(=O)(=O)c1ccc(S(=O)(=O)N2CC3(CCN(CC4CCOCC4)C3)c3ccccc32)cc1 (stereo not shown) [Compound I-96, N,N-dimethyl-4-({1′-[(oxan-4-yl)methyl]-1,2-dihydrospiro[indole-3,3′-pyrrolidin]-1-yl}sulfonyl)benzene-1-sulfonamide]	2.01 to 8 µM
CS(=O)(=O)Nc1ccc(S(=O)(=O)N2CC3(CCCC3)c3ccccc32)cc1 [Compound I-63, N-[4-({1′,2′-dihydrospiro[cyclopentane-1,3′-indol]-1′-yl}sulfonyl)phenyl]methanesulfonamide]	≥ 10 µM
Cc1cc2n(n1)C1(CCCCC1)CN2S(=O)(=O)c1ccc(S(=N)(=O)N(C)C)cc1 (stereo not shown) [Compound I-146, N,N-dimethyl-4-({6′-methyl-1′,2′-dihydrospiro[cyclohexane-1,3′-pyrazolo[1,5-a]imidazol]-1′-yl}sulfonyl)benzene-1-sulfonoimidamide]	≥ 10 µM
CS(=O)(=O)c1ccc(S(=O)(=O)N2CC3(CCN(c4ccc(Cl)cc4F)CC3)c3ccccc32)cc1 [Compound I-65, 1′-(4-chloro-2-fluorophenyl)-1-((4-(methylsulfonyl)phenyl)sulfonyl)spiro[indoline-3,4′-piperidine]]	≤ 2 µM
